According to patent US20080194636A1, “Enzyme Inhibitors and Uses Thereof” (Howard Florey Institute Of Experimental Physiology And …, priority 2004, published 2008):

Experiments:
[1] = target: T1, insulin-regulated aminopeptidase (IRAP) (Homo sapiens, UniProt Q9UIQ6); assay: In vitro enzymatic assay for inhibitors of IRAP (hydrolysis of Leu-MCA, fluorescence); format: biochemical; settings: recombinant full length human IRAP from transfected HEK293 cells; substrate Leu-MCA
T1 construct: containing the cDNA encoding the full length human RAP were utilised; made in house; host or cells: HEK293 cells transfected with pcDNA-3
T1 sequence (Q9UIQ6 whole entry): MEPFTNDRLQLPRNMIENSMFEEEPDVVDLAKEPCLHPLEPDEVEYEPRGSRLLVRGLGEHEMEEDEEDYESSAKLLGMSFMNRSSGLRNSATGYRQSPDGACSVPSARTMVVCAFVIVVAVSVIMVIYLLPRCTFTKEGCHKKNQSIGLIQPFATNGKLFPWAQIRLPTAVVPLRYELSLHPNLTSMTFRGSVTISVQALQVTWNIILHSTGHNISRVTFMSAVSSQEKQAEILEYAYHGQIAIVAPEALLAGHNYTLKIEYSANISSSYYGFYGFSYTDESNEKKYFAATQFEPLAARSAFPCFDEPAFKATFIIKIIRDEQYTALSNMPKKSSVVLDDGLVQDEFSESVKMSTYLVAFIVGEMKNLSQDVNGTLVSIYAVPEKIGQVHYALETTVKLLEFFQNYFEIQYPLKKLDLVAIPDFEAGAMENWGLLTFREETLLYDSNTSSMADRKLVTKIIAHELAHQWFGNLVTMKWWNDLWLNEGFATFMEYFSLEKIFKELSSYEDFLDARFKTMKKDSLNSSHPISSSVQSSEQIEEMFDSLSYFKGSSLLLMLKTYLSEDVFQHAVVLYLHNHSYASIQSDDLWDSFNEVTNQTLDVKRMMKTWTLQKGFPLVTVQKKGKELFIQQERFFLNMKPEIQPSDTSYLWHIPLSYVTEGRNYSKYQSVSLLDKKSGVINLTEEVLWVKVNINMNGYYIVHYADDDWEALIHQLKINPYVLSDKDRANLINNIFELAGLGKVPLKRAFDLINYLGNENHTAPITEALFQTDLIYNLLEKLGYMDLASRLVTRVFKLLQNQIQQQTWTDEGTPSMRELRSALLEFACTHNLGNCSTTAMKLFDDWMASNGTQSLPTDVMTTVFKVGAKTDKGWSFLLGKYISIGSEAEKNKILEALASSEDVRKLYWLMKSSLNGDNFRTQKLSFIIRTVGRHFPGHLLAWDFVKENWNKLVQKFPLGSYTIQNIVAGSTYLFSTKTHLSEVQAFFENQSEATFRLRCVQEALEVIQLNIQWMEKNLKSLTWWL
Method: An in vitro enzymatic assay was used for screening for compounds which inhibit IRAP activity. The assay used an aminopeptidase substrate (leucine 4-methylcoumaryl-7-amide), a source of IRAP-containing material, and a candidate inhibitor.
IRAP-containing material was incubated with a synthetic aminopeptidase substrate, such as Leu-MCA (leucine 4-methylcoumaryl-7-amide), and a test substance. Inhibition of the rate of degradation of the synthetic substrate was taken as a measure of the inhibitory effect of the test substance.
As a source of recombinant IRAP, HEK293 cells transfected with a eukaryotic expression vector pcDNA-3 containing the cDNA encoding the full length human RAP were utilised. The assay system involved the measurement of the rate of hydrolysis of Leu-MCA by RAP. […] Candidate test compounds were added to the assay system, and their effects on the hydrolysis of Leu-MCA were taken to be direct indicators of their ability to inhibit IRAP activity.

3T3-L1 cells = settings: 0.1 and 1 uM; basal and insulin (0.7 nM) stimulated; cited from earlier work
[2] = tested on: scopolamine-induced memory deficit; assay: Scopolamine-induced memory deficit model, inhibitory avoidance paradigm; format: in vivo, rat; settings: rats, following scopolamine, retrieval trial 24 h later, vs scopolamine followed by vehicle
Method: The effect of IRAP inhibitor Compound 1 on scopolamine-induced amnesia was tested in the inhibitory avoidance paradigm.
The inhibitory avoidance box is made up of two chambers, a smaller light compartment and a larger darken compartment and the test comprises of two trials. The first training trial involves placing the rat in the light compartment facing the wall and as soon as it runs to the end of the dark compartment and turns around, an electric shock of 0.6 mA is administered for 2 s and the animal is left in the dark compartment for a total of 15 s before being returned to its home cage. After a 24 h interval, the animal is then tested again and the latency in entering the dark chamber is a measure of the ability of the animal to remember the aversive stimulus. To test for the effect of the IRAP inhibitors, the rats were implanted with a chronic indwelling cannula into the lateral ventricles 1 week before the behavioural experiments. On the day of the testing, 15 min before the training trial, the rats were injected with either […] scopolamine hydrobromide dissolved in 2 ul of 0.9% saline or 0.9% saline before being placed in the inhibitory avoidance box for the training trial. Immediately after the training trial, the rats were injected with either 0.2 or 2 nmol of compound 1 (from Example 1) dissolved in 2 ul of 10% DMSO or vehicle control. […]

IC50 [1] [µM]	SMILES	glucose uptake (3T3-L1 cells)	latency in entering the dark chamber ([2]; 0.2 nmol icv immediately after training trial)	latency in entering the dark chamber ([2]; 2 nmol icv immediately after training trial)
80	COc1ccc(C2C(C#N)=C(N)Oc3cc(O)ccc32)cc1 (stereo not shown) [Compound 9]	–	–	–
–	CC[C@H](C)[C@H](NC(=O)[C@H](Cc1ccc(O)cc1)NC(=O)[C@@H](N)C(C)C)C(=O)N[C@@H](Cc1cnc[nH]1)C(=O)N1CCC[C@H]1C(=O)N[C@@H](Cc1ccccc1)C(=O)O [Ang IV]	enhance	–	–
45	COc1ccc(C2C(C#N)=C(N)Oc3cc(O)ccc32)cc1OC (stereo not shown) [Compound 3]	–	–	–
42	CCOC(=O)C1=C(N)Oc2cc(O)ccc2C1c1cccc(Cl)c1 (stereo not shown) [Compound 2]	–	–	–
4	CCOC(=O)C1=C(N)Oc2cc(O)ccc2C1c1cccnc1 (stereo not shown) [Compound 1]	–	increased latencies	increased latencies
